Measurements as given in US4654368A, “Tri-organotin silatrane derivatives and pesticidal compositions, fungicides or antifouling agents comprising said compounds as active ingredients” (Nitto Kasei Co., Ltd., priority 1984, dated 1987).

Columns and labels:
Type in all cases: in vivo
[1] = system: carmine mites (Tetranychus telarius L.); assay: Miticidal effect on carmine mites; design: key: -: Hardly any injury was observed.; +: Some injury was observed.; ++: The same injury as in the non-treated area was noted; settings: 500 ppm active ingredient, spray plus soil, kidney beans, 8 days later
Method: Female imagoes of carmine mites were caused to live at a rate of 10 per leaf on bineless kidney beans (in the primary leaf stage) in pots 7 days after sowing, and kept in a constant temperature chamber at 25° C. Six days later, a chemical obtained by diluting a wettable powder of each of compounds Nos. 4-6, 9-13, 15, 16, 21, 22, 25, 28-30, 33, 34, 36, 37 and 38 with water to an active ingredient concentration of 500 ppm was sprayed at a rate of 10 ml per pot, and at the same time, 2 ml of the chemical was poured into the soil. Eight days later, injuries to the plants by the mites were examined.
The degree of injury is shown by -, + and ++ as follows: […]

Culex pipiens = assay: Test on insecticidal effect on Culex pipiens; settings: 3.5 ppm, wettable powder of Formulation Example 5 (contains Fenitrothion); for Death rate: final-instar larvae, next day, 1440 min; for Emergence inhibition rate: when all larvae in non-treated area emerged
Method: A wettable powder of each of compounds Nos. 2, 7, 8, 11, 13, 14, 17, 18 and 31 obtained in accordance with Formulation Example 5 was diluted with water to 3.5 ppm. One hundred milliliters of the dilution was put in each of 180 ml. polyethylene cups and 20 final-instar larvae of Culex pipiens were released into the cup. On the next day, the larvae were examined for mortality.
Thereafter, feeds were added to the test areas, and when all larvae n the non-treated area emerged, the emergence inhibition rate was examined.
The death rate and the emergence inhibition rate were rated by three grades as follows: […]

[2] = system: tobacco cutworms (Prodenia litura Fabrficius); assay: Test on insecticidal efficacy on tobacco cutworms; settings: 500 ppm in artificial feed, 4th-instar larvae, 6 days; wettable powder of Formulation Example 5 (contains Fenitrothion)
Method: A wettable powder of each of compounds Nos. 3, 7, 8, 9, 11, 12, 13, 14, 17, 18 and 31 of the invention obtained in accordance with Formulation Example 5 was diluted with water to 200 times (corresponding to a concentration of 500 ppm). Two milliliters of the dilution was impregnated in 13 g of an artificial feed for tobacco cutworms, and the feed was put in a polyethylene cup having a diameter of 11 cm. Ten 4th-instar larvae of tobacco cutworms were released into the cup, and examined for mortality 6 days later. The above experiment was carried out through two replicates.

Plasmopara viticola = assay: Test on fungicidal effect on downy mildew of grape; settings: sprayed on grape seedlings
Excerpt: Sandy soil was filled in plastic pots, and seeds of grape (variety: Neomuscat) were sown, and grown for about 1 month in a greenhouse to obtain young seedlings of grape in the 2-3 leaf stage. A water dilution of an emulsifiable concentrate of a wettable powder of each of the test compounds was sprayed onto the leaves of these seedlings so that the chemical adhered fully to the surfaces of the leaves. After drying the chemical in air, a suspension of conidospores of a […] pathogen of grape (Plasmopara viticola) was inoculated in the seedling by spraying. The seedlings were placed for 2 days in a high humidity condition at 23° C., and subsequently cultivated for 14 days in a greenhouse kept at 20° to 25° C. to cause onset of the disease. Thereafter, the state of the disease was observed.
The degree of disease was calculated by the following method. The examined leaves were classified by indices of 0, 0.5, 1, 2 and 4 according to the degrees of appearance of lesions, and the degree of disease was calculated from the following equation.
0: No fungus colony or lesion was noted on the surface of the leaves.
The control index was calculated from the following equation. [formula]

[3] = system: marine animals and plants; assay: Test on antifouling effects on marine animals and plants in the sea; settings: Owase Bay; for Fouled state, period of submerging 4 months / Fouled state, period of submerging 8 months / Fouled state, period of submerging 12 months: antifouling paint on vinyl chloride plate
Method: A ship bottom antifouling paint was prepared by adding 24 g of Rosin WW, 12 g of a vinyl copolymer, 4 g of tricresyl phosphate, 10 g of bentonite, 20 g of baryta, 20 g of red iron oxide, 35 g of xylene and 35 g of methyl isobutyl ketone to 40 g of each of compounds Nos. 2, 8, 14, 17, 20 and 32 of the invention and vigorously stirring the mixture at room temperature for 1 hour. The paint was coated on both surfaces of a rigid vinyl chloride resin plate, 17×9×0.3 cm in size, to a dry thickness of about 200 microns. The coated plate was submerged in the sea in Owase Bay, Mie Prefecture, Japan for 12 months, and its fouled state was regularly observed.
The symbols in the table show the following.

## CCC1CN2CC(C)O[Si](CCC[S][Sn]([CH2]C(C)(C)c3ccccc3)([CH2]C(C)(C)c3ccccc3)[CH2]C(C)(C)c3ccccc3)(OC(C)C2)O1 (centres unmarked) [compound 34]
[1]
  Degree of injury: -

## CCC1CN2CCO[Si](CCC[S][Sn]([CH]3CCCCC3)([CH]3CCCCC3)[CH]3CCCCC3)(OCC2)O1 (centres unmarked) [compound 36]
[1]
  Degree of injury: -~+

## CC1CN2CC(C)O[Si](CCC[S][Sn]([CH2]C(C)(C)c3ccccc3)([CH2]C(C)(C)c3ccccc3)[CH2]C(C)(C)c3ccccc3)(O1)OC(C)C2 (centres unmarked) [compound 10]
[1]
  Degree of injury: -

## CCCCCCC[CH2][Sn]([CH2]CCCCCCC)([CH2]CCCCCCC)[S]CCC[Si]12OCCN(CCO1)CCO2 [compound 29]
[1]
  Degree of injury: -~+

## C1CC[CH]([Sn]([S]CC[Si]23OCCN(CCO2)CCO3)([CH]2CCCCC2)[CH]2CCCCC2)CC1 [compound 7]
Culex pipiens
  Death rate: C (less than 10%)
  Emergence inhibition rate: A (90% or higher)
[2]
  Death rate: 100%

## CCC1CN2CCO[Si](CCC[S][Sn]([CH2]C(C)(C)c3ccccc3)([CH2]C(C)(C)c3ccccc3)[CH2]C(C)(C)c3ccccc3)(OCC2)O1 (centres unmarked) [compound 33]
[1]
  Degree of injury: -

## CC(C)([CH2][Sn]([CH2]C(C)(C)c1ccccc1)([CH2]C(C)(C)c1ccccc1)[S]CC[Si]12OCCN(CCO1)CCO2)c1ccccc1 [compound 5]
[1]
  Degree of injury: -~+

## c1cc[c]([Sn]([S]CCC[Si]23OCCN(CCO2)CCO3)([c]2ccccc2)[c]2ccccc2)cc1 [compound 1]
Plasmopara viticola; 12.5 ppm active ingredient
  Control index: 97%
Plasmopara viticola; 50 ppm active ingredient
  Control index: 100%
Plasmopara viticola; 200 ppm active ingredient
  Control index: 100%

## CC(C)(C)[CH2][Sn]([CH2]C(C)(C)C)([CH2]C(C)(C)C)[S]CC[Si]12OCCN(CCO1)CCO2 [compound 38]
[1]
  Degree of injury: -

## CC1CN2CC(C)O[Si](CCC[S][Sn]([CH]3CCCCC3)([CH]3CCCCC3)[CH]3CCCCC3)(O1)OC(C)C2 (centres unmarked) [compound 11]
Plasmopara viticola; 12.5 ppm active ingredient
  Control index: 96%
Plasmopara viticola; 50 ppm active ingredient
  Control index: 100%
Plasmopara viticola; 200 ppm active ingredient
  Control index: 100%
Culex pipiens
  Death rate: B (less than 90% to 10%)
  Emergence inhibition rate: A (90% or higher)
[2]
  Death rate: 100%
[1]
  Degree of injury: -

## CCC[CH2][Sn]([CH2]CCC)([CH2]CCC)[S]CCC[Si]12OCCN(CCO1)CC(CC)O2 (centres unmarked) [compound 25]
[1]
  Degree of injury: -~+

## CCC1CN2CC(C)O[Si](CCC[S][Sn]([CH]3CCCCC3)([CH]3CCCCC3)[CH]3CCCCC3)(OC(C)C2)O1 (centres unmarked) [compound 37]
[1]
  Degree of injury: -

## CCCCCCC[CH2][Sn]([CH2]CCCCCCC)([CH2]CCCCCCC)[S]CCC[Si]12OC(C)CN(CC(C)O1)CC(C)O2 (centres unmarked) [compound 30]
[1]
  Degree of injury: -

## CCC1CN2CCO[Si](CCC[S][Sn]([c]3ccccc3)([c]3ccccc3)[c]3ccccc3)(O1)OC(CC)C2 (centres unmarked) [compound 20]
[3]
  Fouled state, period of submerging 4 months: .circle.
  Fouled state, period of submerging 8 months: .circle.
  Fouled state, period of submerging 12 months: Δ (Marine animals and plants adhered to less than 5% of the area of the coated film)
[3]; antifouling paint, up to 12 months
  Fouled by: Algae

## CCC[CH2][Sn]([CH2]CCC)([CH2]CCC)[S]CC[Si]12OC(C)CN(CC(C)O1)CC(C)O2 (centres unmarked) [compound 8]
Plasmopara viticola; 12.5 ppm active ingredient
  Control index: 94%
Plasmopara viticola; 50 ppm active ingredient
  Control index: 100%
Plasmopara viticola; 200 ppm active ingredient
  Control index: 100%
Culex pipiens
  Death rate: B (less than 90% to 10%)
  Emergence inhibition rate: A (90% or higher)
[2]
  Death rate: 100%
[3]
  Fouled state, period of submerging 4 months: .circle.
  Fouled state, period of submerging 8 months: .circle.
  Fouled state, period of submerging 12 months: .circle.

## CC1CN2CC(C)O[Si](CCC[S][Sn]([c]3ccccc3)([c]3ccccc3)[c]3ccccc3)(O1)OC(C)C2 (centres unmarked) [compound 9, 1-(3-triphenylstannylthiopropyl)-3,7,10-trimethylsilatrane]
Plasmopara viticola; 12.5 ppm active ingredient
  Control index: 98%
Plasmopara viticola; 50 ppm active ingredient
  Control index: 100%
Plasmopara viticola; 200 ppm active ingredient
  Control index: 100%
[2]
  Death rate: 100%
[1]
  Degree of injury: -

## CCC1CN2CCO[Si](CCC[S][Sn]([CH2]C(C)(C)c3ccccc3)([CH2]C(C)(C)c3ccccc3)[CH2]C(C)(C)c3ccccc3)(O1)OC(CC)C2 (centres unmarked) [compound 21]
[1]
  Degree of injury: -

## CCC1CN2CCO[Si](CCC[S][Sn]([CH]3CCCCC3)([CH]3CCCCC3)[CH]3CCCCC3)(O1)OC(CC)C2 (centres unmarked) [compound 22]
[1]
  Degree of injury: -~+

## CCO[PH](=O)O [reference compound]
Plasmopara viticola; 200 ppm active ingredient
  Control index: 68%

## CCCCCCC[CH2][Sn]([CH2]CCCCCCC)([CH2]CCCCCCC)[S]CCC[Si]12OC(C)CN(CC(C)O1)CC(C)O2 (centres unmarked) [compound 16]
[1]
  Degree of injury: -

## CCCCCCC[CH2][Sn]([CH2]CCCCCCC)([CH2]CCCCCCC)[S]CCC[Si]12OCCN(CCO1)CCO2 [compound 15]
[1]
  Degree of injury: -

## c1cc[c]([Sn]([S]CC[Si]23OCCN(CCO2)CCO3)([c]2ccccc2)[c]2ccccc2)cc1 [compound 2, 1-(2-triphenylstannylthioethyl)silatrane]
Culex pipiens
  Death rate: B (less than 90% to 10%)
  Emergence inhibition rate: A (90% or higher)
[3]
  Fouled state, period of submerging 4 months: .circle.
  Fouled state, period of submerging 8 months: .circle.
  Fouled state, period of submerging 12 months: .circle.

## CC1CN2CC(C)O[Si](CC[S][Sn]([CH2]C(C)(C)c3ccccc3)([CH2]C(C)(C)c3ccccc3)[CH2]C(C)(C)c3ccccc3)(O1)OC(C)C2 (centres unmarked) [compound 6]
[1]
  Degree of injury: -~+

## C1CC[CH]([Sn]([S]CCC[Si]23OCCN(CCO2)CCO3)([CH]2CCCCC2)[CH]2CCCCC2)CC1 [compound 13]
Culex pipiens
  Death rate: A (90% or higher)
  Emergence inhibition rate: A (90% or higher)
[2]
  Death rate: 100%
[1]
  Degree of injury: -

## CC1CN2CC(C)O[Si](CC[S][Sn]([c]3ccccc3)([c]3ccccc3)[c]3ccccc3)(O1)OC(C)C2 (centres unmarked) [compound 3]
Plasmopara viticola; 12.5 ppm active ingredient
  Control index: 98%
Plasmopara viticola; 50 ppm active ingredient
  Control index: 100%
Plasmopara viticola; 200 ppm active ingredient
  Control index: 100%
[2]
  Death rate: 100%

## CCC1CN2CCO[Si](CCC[S][Sn]([CH2]C(C)C)([CH2]C(C)C)[CH2]C(C)C)(O1)OC(CC)C2 (centres unmarked) [compound 28]
[1]
  Degree of injury: -

## CCC[CH2][Sn]([CH2]CCC)([CH2]CCC)[S]CCC[Si]12OCCN(CCO1)CCO2 [compound 14]
Culex pipiens
  Death rate: A (90% or higher)
  Emergence inhibition rate: A (90% or higher)
[2]
  Death rate: 100%
[3]
  Fouled state, period of submerging 4 months: .circle.
  Fouled state, period of submerging 8 months: .circle.
  Fouled state, period of submerging 12 months: .circle.

## CC(C)([CH2][Sn]([CH2]C(C)(C)c1ccccc1)([CH2]C(C)(C)c1ccccc1)[S]CCC[Si]12OCCN(CCO1)CCO2)c1ccccc1 [compound 4, 1-(3-trineophylstannylthiopropyl)silatrane]
[1]
  Degree of injury: -

## CCC1CN2CCO[Si](CCC[S][Sn]([c]3ccccc3)([c]3ccccc3)[c]3ccccc3)(OCC2)O1 (centres unmarked) [compound 31]
Culex pipiens
  Death rate: B (less than 90% to 10%)
  Emergence inhibition rate: A (90% or higher)
[2]
  Death rate: 100%
